The target of one experiment is LXRβ (Homo sapiens (Human), UniProt P55055). The experiment is described as follows: In vitro assay LXRβ: PathHunter NHR CHO cells, LXRβ / Steroid Receptor Co-activator Peptide enzyme fragment complementation. Particulars: PathHunter NHR CHO cells, full-length human LXRβ and SRCP, chemiluminescent signal; read-out: LXRβ PPI. Type of experiment: cell-based. Put shortly: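 Enzyme fragment complementation read-out: CHO cells stably expressing ProLink-tagged full-length human LXRβ plus nuclear enzyme acceptor–SRCP fusion, seeded and held overnight at 37° C. Medium with charcoal-dextran filtered serum; final vehicle 1%. Chemiluminescence measured after signal generation.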

For the next experiment, the target named is SREBP-2 (Homo sapiens (Human), UniProt Q12772). The experiment is described as follows: In vitro assay SREBP-2: PathHunter U2OS SREBP-2 Nuclear Translocation Cell Line, U18666A-stimulated. Format: cell-based. Particulars: PathHunter U2OS SREBP-2 nuclear translocation cells, U18666A 10 μM, overnight (16 hours).

Chain of LXRβ (P55055 whole entry, the tested form may be a part): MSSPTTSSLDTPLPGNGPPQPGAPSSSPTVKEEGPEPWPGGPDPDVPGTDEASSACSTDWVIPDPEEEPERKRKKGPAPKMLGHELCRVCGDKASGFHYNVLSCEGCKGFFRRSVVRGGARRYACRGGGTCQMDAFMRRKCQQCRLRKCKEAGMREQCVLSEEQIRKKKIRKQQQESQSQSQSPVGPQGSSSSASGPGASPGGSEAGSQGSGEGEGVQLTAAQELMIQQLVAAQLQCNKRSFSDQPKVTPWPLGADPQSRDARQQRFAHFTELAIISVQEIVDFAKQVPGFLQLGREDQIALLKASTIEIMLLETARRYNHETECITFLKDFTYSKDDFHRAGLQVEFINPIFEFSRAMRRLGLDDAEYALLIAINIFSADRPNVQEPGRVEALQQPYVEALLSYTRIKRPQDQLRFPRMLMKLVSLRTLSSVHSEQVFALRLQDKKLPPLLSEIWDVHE

What is called IC50 is the point on the concentration scale where inhibition reaches its midpoint. A low value points to greater potency in that assay. `C[C@H](CCC(=O)N1CC2(CC(O)C2)C1)[C@H]1CC[C@H]2[C@@H]3CC=C4C[C@@H](O)CC[C@]4(C)[C@H]3CC[C@]12C` [Example 100, (R)-4-((3S,8S,9S,10R,13R,14S,17R)-3-hydroxy-10,13-dimethyl-2,3,4,7,8,9,10,11,12,13,14,15,16,17-tetradecahydro-1H-cyclopenta[a]phenanthren-17-yl)-1-(6-hydroxy-2-azaspiro[3.3]heptan-2-yl)pentan-1-one]: at LXRβ, the EC50 is above 10000 nM. The molecule also displayed a half-maximal inhibitory concentration (IC50) at SREBP-2 below 250 nM.
Take `C[C@H](CCC(=O)N1CC2(C1)CC(C)(O)C2)[C@H]1CC[C@H]2[C@@H]3CC=C4C[C@@H](O)CC[C@]4(C)[C@H]3CC[C@]12C` [Example 101, (R)-4-((3S,8S,9S,10R,13R,14S,17R)-3-hydroxy-10,13-dimethyl-2,3,4,7,8,9,10,11,12,13,14,15,16,17-tetradecahydro-1H-cyclopenta[a]phenanthren-17-yl)-1-(6-hydroxy-6-methyl-2-azaspiro[3.3]heptan-2-yl)pentan-1-one]: on LXRβ, the EC50 is above 10000 nM. Moreover, the half-inhibitory concentration (IC50) against SREBP-2 is below 250 nM.
With `CCC1(O)CC2(CN(C(=O)CC[C@@H](C)[C@H]3CC[C@H]4[C@@H]5CC=C6C[C@@H](O)CC[C@]6(C)[C@H]5CC[C@]34C)C2)C1` [Example 102, (R)-1-(6-ethyl-6-hydroxy-2-azaspiro[3.3]heptan-2-yl)-4-((3S,8S,9S,10R,13R,14S,17R)-3-hydroxy-10,13-dimethy12,3,4,7,8,9,10,11,12,13,14,15,16,17-tetradecahydro-1H-cyclopenta[a]phenanthren-17-yl)pentan-1-one], on LXRβ, the EC50 was above 10000 nM. The concentration for half-maximal inhibition (IC50) at SREBP-2 was below 250 nM.
Turning to `C[C@H](CCC(=O)N1CCC[C@H](O)C1)[C@H]1CC[C@H]2[C@@H]3CC=C4C[C@@H](O)CC[C@]4(C)[C@H]3CC[C@]12C` [Example 103, (R)-4-((3S,8S,9S,10R,13R,14S,17R)-3-hydroxy-10,13-dimethyl-2,3,4,7,8,9,10,11,12,13,14,15,16,17-tetradecahydro-1H-cyclopenta[a]phenanthren-17-yl)-1-((S)-3-hydroxypiperidin-1-yl)pentan-1-one], on LXRβ, the EC50 lay within 250 to 1000 nM. The 50% inhibitory concentration (IC50) at SREBP-2 was below 250 nM.
With `C[C@H](CCC(=O)N1CCC[C@@H](O)C1)[C@H]1CC[C@H]2[C@@H]3CC=C4C[C@@H](O)CC[C@]4(C)[C@H]3CC[C@]12C` [Example 104, (R)-4-((3S,8S,9S,10R,13R,14S,17R)-3-hydroxy-10,13-dimethyl-2,3,4,7,8,9,10,11,12,13,14,15,16,17-tetradecahydro-1H-cyclopenta[a]phenanthren-17-yl)-1-((R)-3-hydroxypiperidin-1-yl) pentan-1-one], at LXRβ, the EC50 was in the range of 250 to 1000 nM. In addition, on SREBP-2, the IC50 was below 250 nM.
For the molecule `C[C@H](CCC(=O)N1CCC[C@@](C)(O)C1)[C@H]1CC[C@H]2[C@@H]3CC=C4C[C@@H](O)CC[C@]4(C)[C@H]3CC[C@]12C` [Example 105, (R)-4-((3S,8S,9S,10R,13R,14S,17R)-3-hydroxy-10,13-dimethyl-2,3,4,7,8,9,10,11,12,13,14,15,16,17-tetradecahydro-1H-cyclopenta[a]phenanthren-17-yl)-1-((R)-3-hydroxy-3-methylpiperidin-1-yl) pentan-1-one], on LXRβ, the EC50 is 1000 to 10000 nM. On SREBP-2, this molecule registered an IC50 below 250 nM.
`CC[C@@]1(O)CCCN(C(=O)CC[C@@H](C)[C@H]2CC[C@H]3[C@@H]4CC=C5C[C@@H](O)CC[C@]5(C)[C@H]4CC[C@]23C)C1` [Example 106, (4R)-1-(3-ethyl-3-hydroxypiperidin-1-yl)-4-((3S,8S,9S,10R,13R,14S,17R)-3-hydroxy-10,13-dimethyl-2,3,4,7,8,9,10,11,12,13,14,15,16,17-tetradecahydro-1H-cyclopenta[a]phenanthren-17-yl)pentan-1-one]: the EC50 at LXRβ is 250 to 1000 nM. The half-inhibitory concentration (IC50) at SREBP-2 is below 250 nM.
Take `C[C@H]1CCCN(C(=O)CC[C@@H](C)[C@H]2CC[C@H]3[C@@H]4CC=C5C[C@@H](O)CC[C@]5(C)[C@H]4CC[C@]23C)C1` [Example 110, (R)-4-((3S,8S,9S,10R,13R,14S,17R)-3-hydroxy-10,13-dimethyl-2,3,4,7,8,9,10,11,12,13,14,15,16,17-tetradecahydro-1H-cyclopenta[a]phenanthren-17-yl)-1-((S)-3-methylpiperidin-1-yl) pentan-1-one]: the EC50 at LXRβ fell in the range of 1000 to 10000 nM. On SREBP-2, this molecule registered an IC50 below 250 nM.
In the same order, the values of `C[C@@H]1CCCN(C(=O)CC[C@@H](C)[C@H]2CC[C@H]3[C@@H]4CC=C5C[C@@H](O)CC[C@]5(C)[C@H]4CC[C@]23C)C1` [Example 111, (R)-4-((3S,8S,9S,10R,13R,14S,17R)-3-hydroxy-10,13-dimethyl-2,3,4,7,8,9,10,11,12,13,14,15,16,17-tetradecahydro-1H-cyclopenta[a]phenanthren-17-yl)-1-((R)-3-methylpiperidin-1-yl) pentan-1-one] are 250 to 1000 nM and below 250 nM.
Regarding `C[C@H](CCC(=O)N1CCC[C@@H]1C)[C@H]1CC[C@H]2[C@@H]3CC=C4C[C@@H](O)CC[C@]4(C)[C@H]3CC[C@]12C` [Example 112, (R)-4-((3S,8S,9S,10R,13R,14S,17R)-3-hydroxy-10,13-dimethyl-2,3,4,7,8,9,10,11,12,13,14,15,16,17-tetradecahydro-1H-cyclopenta[a]phenanthren-17-yl)-1-((S)-2-methylpyrrolidin-1-yl)pentan-1-one], the EC50 at LXRβ lay within 250 to 1000 nM. The molecule also returned an IC50 against SREBP-2 below 250 nM.
For `C[C@H](CCC(=O)N1CCC[C@H]1C)[C@H]1CC[C@H]2[C@@H]3CC=C4C[C@@H](O)CC[C@]4(C)[C@H]3CC[C@]12C` [Example 113, (R)-4-((3S,8S,9S,10R,13R,14S,17R)-3-hydroxy-10,13-dimethyl-2,3,4,7,8,9,10,11,12,13,14,15,16,17-tetradecahydro-1H-cyclopenta[a]phenanthren-17-yl)-1-((R)-2-methylpyrrolidin-1-yl)pentan-1-one], the EC50 at LXRβ was 250 to 1000 nM. In addition, the 50% inhibitory concentration (IC50) against SREBP-2 is below 250 nM.
Turning to `C[C@H]1CCN(C(=O)CC[C@@H](C)[C@H]2CC[C@H]3[C@@H]4CC=C5C[C@@H](O)CC[C@]5(C)[C@H]4CC[C@]23C)C1` [Example 114, (R)-4-((3S,8S,9S,10R,13R,14S,17R)-3-hydroxy-10,13-dimethyl-2,3,4,7,8,9,10,11,12,13,14,15,16,17-tetradecahydro-1H-cyclopenta[a]phenanthren-17-yl)-1-((S)-3-methylpyrrolidin-1-yl)pentan-1-one], at LXRβ, the EC50 lay in the range of 250 to 1000 nM. Further, the IC50 against SREBP-2 was below 250 nM.
Regarding `C[C@@H]1CCN(C(=O)CC[C@@H](C)[C@H]2CC[C@H]3[C@@H]4CC=C5C[C@@H](O)CC[C@]5(C)[C@H]4CC[C@]23C)C1` [Example 115, (R)-4-((3S,8S,9S,10R,13R,14S,17R)-3-hydroxy-10,13-dimethyl-2,3,4,7,8,9,10,11,12,13,14,15,16,17-tetradecahydro-1H-cyclopenta[a]phenanthren-17-yl)-1-((R)-3-methylpyrrolidin-1-yl)pentan-1-one], the EC50 on LXRβ lay within 250 to 1000 nM. Besides, on SREBP-2, the IC50 is below 250 nM.
For `C[C@H](CCC(=O)N(C)C)[C@H]1CC[C@H]2[C@@H]3CC=C4C[C@@](C)(O)CC[C@]4(C)[C@H]3CC[C@]12C` [Example 120, (R)-4-((3S,8S,9S,10R,13R,14S,17R)-3-hydroxy-3,10,13-trimethyl-2,3,4,7,8,9,10,11,12,13,14,15,16,17-tetradecahydro-1H-cyclopenta [a]phenanthren-17-yl) -N,N-dimethylpentanamide], in that order: above 10000 nM and 1000 to 10000 nM.
Consider `C[C@H](CCC(=O)N(C)C)[C@H]1CC[C@H]2[C@@H]3CC=C4C[C@](C)(O)CC[C@]4(C)[C@H]3CC[C@]12C` [Example 121, (R)-4-((3R,8S,9S,10R,13R,14S,17R)-3-hydroxy-3,10,13-trimethyl-2,3,4,7,8,9,10,11,12,13,14,15,16,17-tetradecahydro-1H-cyclopenta [a]phenanthren-17-yl) -N,N-dimethylpentanamide], for which the EC50 on LXRβ was 1000 to 10000 nM. The half-inhibitory concentration (IC50) against SREBP-2 was above 10000 nM.
In the same order, the values of `C[C@H](CCc1ccccn1)[C@H]1CC[C@H]2[C@@H]3CC=C4C[C@@H](O)CC[C@]4(C)[C@H]3CC[C@]12C` [Example 124, (3S,8S,9S,10R,13R,14S,17R)-10,13-dimethyl-17-((R)-4-(pyridin-2-yl)butan-2-yl)-2,3,4,7,8,9,10,11,12,13,14,15,16,17-tetradecahydro-1H-cyclopenta[a]phenanthren-3-ol] are 250 to 1000 nM and below 250 nM.
As to `C[C@H](CCC(=O)N(C)C)[C@H]1CC[C@H]2[C@@H]3CC=C4C[C@@H](F)CC[C@]4(C)[C@H]3CC[C@]12C` [Example 126, (R)-4-((3S,8S,9S,10R,13R,14S,17R)-3-fluoro-10,13-dimethyl-2,3,4,7,8,9,10,11,12,13,14,15,16,17-tetradecahydro-1H-cyclopenta[a]phenanthren-17-yl)-N,N-dimethylpentanamide], the EC50 on LXRβ was above 10000 nM. Moreover, the IC50 at SREBP-2 is above 10000 nM.
`C[C@H](CCC(=O)N(C)C)[C@H]1CC[C@H]2[C@@H]3CC=C4CC(F)(F)CC[C@]4(C)[C@H]3CC[C@]12C` [Example 127, (R)-4-((8S,9S,10R,13R,14S,17R)-3,3-difluoro-10,13-dimethyl-2,3,4,7,8,9,10,11,12,13,14,15,16,17-tetradecahydro-1H-cyclopenta[a]phenanthren-17-yl) -N,N-dimethylpentanamide]: the EC50 at LXRβ was above 10000 nM. Also, the half-maximal inhibitory concentration (IC50) against SREBP-2 is above 10000 nM.
